Test results as given in US20050090496A1, “Sulphonyl compounds with 5-ht6 receptor affinity” (priority 2002, published 2005).
Where a name gives a salt, the structure may show the parent alone.

Target: T1, human cloned 5-HT6 receptors (Homo sapiens, UniProt P50406)
T1 construct: expressed in transfected cells
Assay: affinity for the 5-HT6 receptor (procedures of WO98/27081)
Type: binding
Excerpt: Compounds can be tested following the procedures outlined in WO98/27081.

T1 sequence (P50406 whole entry): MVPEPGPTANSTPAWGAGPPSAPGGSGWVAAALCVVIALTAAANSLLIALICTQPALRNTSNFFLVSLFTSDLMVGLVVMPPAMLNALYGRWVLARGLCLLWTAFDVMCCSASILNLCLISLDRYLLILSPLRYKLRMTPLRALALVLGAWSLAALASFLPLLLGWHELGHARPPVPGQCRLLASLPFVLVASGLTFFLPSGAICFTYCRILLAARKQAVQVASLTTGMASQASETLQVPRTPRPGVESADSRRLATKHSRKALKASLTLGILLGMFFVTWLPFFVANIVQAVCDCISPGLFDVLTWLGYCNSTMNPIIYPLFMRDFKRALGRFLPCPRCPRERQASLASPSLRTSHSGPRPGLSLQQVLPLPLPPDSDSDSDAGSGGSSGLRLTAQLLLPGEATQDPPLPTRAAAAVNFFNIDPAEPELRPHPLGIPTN

Ki: < 0.01 µM
Compound: O=S(=O)(c1cccc(Cl)c1)n1ccc2c(N3CCNCC3)ccnc21 [Example E1, 4[1-(3-Chlorobenzenesulfonyl)-1-pyrrolo[2,3-b]pyridin-4-yl]-piperazine hydrochloride]
